Key:
[1] = target: T1, 5-hydroxytryptamine receptor 2A (Homo sapiens, UniProt P28223); type: functional, cell-based
[2] = target: T2, Endothelin-1 receptor (Homo sapiens, UniProt P25101)
T2 sequence (P25101 whole entry): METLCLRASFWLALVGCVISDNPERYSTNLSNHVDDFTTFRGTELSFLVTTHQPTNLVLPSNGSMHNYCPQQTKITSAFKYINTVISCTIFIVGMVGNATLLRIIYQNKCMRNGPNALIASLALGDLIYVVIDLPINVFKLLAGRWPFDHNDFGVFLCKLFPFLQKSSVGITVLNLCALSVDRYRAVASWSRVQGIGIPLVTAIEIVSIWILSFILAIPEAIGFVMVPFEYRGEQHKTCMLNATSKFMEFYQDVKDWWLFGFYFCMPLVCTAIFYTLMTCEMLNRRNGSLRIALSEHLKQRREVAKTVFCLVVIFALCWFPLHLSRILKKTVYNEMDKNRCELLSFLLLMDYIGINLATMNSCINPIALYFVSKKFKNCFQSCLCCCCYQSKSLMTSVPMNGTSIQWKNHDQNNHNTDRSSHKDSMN

[3] = target: Mu-type opioid receptor (Homo sapiens, UniProt P35372); assay: biochemical; type: functional
[4] = target: Cannabinoid receptor 1 (Homo sapiens, UniProt P21554); type: functional, cell-based
[5] = target: Histamine H1 receptor (Homo sapiens, UniProt P35367)
[6] = target: T1, 5-hydroxytryptamine receptor 2A; type: functional, cell-based; remark: listed apart in the source
[7] = target: T3, 5-hydroxytryptamine receptor 1A (Homo sapiens, UniProt P08908); type: functional, cell-based
T3 sequence (P08908 whole entry): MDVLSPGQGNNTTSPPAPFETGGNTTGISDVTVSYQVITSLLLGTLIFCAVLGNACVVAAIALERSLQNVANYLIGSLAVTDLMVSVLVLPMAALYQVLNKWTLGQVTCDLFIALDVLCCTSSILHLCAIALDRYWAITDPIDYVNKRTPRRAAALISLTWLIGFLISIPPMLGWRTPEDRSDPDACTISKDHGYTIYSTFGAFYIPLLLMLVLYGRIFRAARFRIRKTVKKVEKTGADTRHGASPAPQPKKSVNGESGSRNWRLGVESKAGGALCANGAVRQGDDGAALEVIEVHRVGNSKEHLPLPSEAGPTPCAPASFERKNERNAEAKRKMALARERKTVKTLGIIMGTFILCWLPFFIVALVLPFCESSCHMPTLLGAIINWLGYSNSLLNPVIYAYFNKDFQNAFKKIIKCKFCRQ

[8] = target: T4, Alpha-1A adrenergic receptor (Homo sapiens, UniProt P35348)
T4 sequence (P35348 whole entry): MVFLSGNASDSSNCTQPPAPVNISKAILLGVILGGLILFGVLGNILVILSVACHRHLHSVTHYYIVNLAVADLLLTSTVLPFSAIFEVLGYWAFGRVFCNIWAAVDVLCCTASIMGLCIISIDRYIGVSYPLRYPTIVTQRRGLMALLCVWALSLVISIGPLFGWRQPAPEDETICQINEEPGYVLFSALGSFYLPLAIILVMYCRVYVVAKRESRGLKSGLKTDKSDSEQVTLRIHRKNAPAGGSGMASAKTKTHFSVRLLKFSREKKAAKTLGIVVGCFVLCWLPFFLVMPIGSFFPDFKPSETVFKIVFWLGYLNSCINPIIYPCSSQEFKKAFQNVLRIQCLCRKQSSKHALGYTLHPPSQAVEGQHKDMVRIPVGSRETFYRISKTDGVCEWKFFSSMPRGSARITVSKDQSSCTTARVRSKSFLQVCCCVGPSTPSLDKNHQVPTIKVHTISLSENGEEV

[9] = target: T5, Estrogen receptor (Homo sapiens, UniProt P03372)
T5 sequence (P03372 whole entry): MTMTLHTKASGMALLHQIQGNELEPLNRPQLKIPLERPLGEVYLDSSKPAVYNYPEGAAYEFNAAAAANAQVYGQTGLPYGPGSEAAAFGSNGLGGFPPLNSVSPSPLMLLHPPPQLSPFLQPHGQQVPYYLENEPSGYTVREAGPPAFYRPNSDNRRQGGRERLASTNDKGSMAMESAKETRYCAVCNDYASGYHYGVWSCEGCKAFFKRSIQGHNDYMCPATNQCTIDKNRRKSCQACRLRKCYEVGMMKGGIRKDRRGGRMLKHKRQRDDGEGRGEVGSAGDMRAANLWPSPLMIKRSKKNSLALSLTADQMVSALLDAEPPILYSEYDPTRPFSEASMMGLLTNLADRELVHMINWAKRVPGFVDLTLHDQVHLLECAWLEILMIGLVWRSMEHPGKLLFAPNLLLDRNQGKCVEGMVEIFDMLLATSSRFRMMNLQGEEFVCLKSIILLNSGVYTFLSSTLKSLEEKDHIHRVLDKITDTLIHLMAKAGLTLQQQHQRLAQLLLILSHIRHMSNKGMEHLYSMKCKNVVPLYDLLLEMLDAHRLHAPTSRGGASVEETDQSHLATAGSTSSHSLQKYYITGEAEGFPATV

[10] = target: Beta-2 adrenergic receptor (Homo sapiens, UniProt P07550); type: functional, cell-based
Also: assay procedure not described here.

Histamine H1 receptor, sequence (P35367 whole entry): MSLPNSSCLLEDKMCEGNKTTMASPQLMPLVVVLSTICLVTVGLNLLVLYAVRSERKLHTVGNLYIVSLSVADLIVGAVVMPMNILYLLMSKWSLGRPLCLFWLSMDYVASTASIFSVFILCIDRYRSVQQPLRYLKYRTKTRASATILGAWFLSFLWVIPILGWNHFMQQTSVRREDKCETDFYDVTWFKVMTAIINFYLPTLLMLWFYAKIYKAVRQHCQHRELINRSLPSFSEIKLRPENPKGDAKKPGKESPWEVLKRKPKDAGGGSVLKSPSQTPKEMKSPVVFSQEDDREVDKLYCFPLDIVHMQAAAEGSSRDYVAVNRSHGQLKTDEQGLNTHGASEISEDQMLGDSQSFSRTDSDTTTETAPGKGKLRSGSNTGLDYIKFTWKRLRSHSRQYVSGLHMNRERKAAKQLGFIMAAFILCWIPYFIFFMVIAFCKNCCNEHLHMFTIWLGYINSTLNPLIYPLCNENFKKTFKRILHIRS
Beta-2 adrenergic receptor, sequence (P07550 whole entry): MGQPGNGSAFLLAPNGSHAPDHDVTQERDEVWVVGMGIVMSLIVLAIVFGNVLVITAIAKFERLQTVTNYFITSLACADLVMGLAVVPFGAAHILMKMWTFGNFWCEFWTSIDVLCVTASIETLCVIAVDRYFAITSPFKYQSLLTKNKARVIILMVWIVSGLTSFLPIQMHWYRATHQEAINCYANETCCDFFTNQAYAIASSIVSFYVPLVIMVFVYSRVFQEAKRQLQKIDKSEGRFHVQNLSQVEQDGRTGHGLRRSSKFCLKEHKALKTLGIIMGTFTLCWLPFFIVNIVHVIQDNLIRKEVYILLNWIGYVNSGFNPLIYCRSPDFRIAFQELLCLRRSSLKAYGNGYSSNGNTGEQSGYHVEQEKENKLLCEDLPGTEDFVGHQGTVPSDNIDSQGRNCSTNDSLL
T1 sequence (P28223 whole entry): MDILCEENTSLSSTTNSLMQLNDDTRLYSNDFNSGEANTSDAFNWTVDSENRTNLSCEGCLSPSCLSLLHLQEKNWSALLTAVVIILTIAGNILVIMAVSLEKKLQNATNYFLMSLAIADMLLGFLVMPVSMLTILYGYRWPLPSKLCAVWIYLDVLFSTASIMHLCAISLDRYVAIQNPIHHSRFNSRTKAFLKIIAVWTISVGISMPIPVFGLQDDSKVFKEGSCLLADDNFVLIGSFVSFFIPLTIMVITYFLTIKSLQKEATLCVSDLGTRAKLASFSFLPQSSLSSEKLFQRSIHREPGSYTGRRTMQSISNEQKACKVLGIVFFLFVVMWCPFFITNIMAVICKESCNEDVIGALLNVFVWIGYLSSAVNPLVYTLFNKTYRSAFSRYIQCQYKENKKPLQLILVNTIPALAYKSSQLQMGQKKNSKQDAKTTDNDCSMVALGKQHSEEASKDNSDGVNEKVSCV
Cannabinoid receptor 1, sequence (P21554 whole entry): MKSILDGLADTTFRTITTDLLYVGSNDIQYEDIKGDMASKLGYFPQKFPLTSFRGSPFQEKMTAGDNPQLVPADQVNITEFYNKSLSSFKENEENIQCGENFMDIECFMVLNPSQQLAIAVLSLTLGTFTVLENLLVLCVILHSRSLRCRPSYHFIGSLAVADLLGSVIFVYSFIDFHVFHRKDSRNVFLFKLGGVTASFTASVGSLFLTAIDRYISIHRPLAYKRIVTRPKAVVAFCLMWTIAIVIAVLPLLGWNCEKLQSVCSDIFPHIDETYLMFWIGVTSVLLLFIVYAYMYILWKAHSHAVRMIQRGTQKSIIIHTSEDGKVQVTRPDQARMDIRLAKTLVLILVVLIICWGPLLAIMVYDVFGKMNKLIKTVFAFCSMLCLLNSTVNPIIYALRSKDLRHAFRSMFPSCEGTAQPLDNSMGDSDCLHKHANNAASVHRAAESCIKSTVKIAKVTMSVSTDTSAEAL
Mu-type opioid receptor, sequence (P35372 whole entry): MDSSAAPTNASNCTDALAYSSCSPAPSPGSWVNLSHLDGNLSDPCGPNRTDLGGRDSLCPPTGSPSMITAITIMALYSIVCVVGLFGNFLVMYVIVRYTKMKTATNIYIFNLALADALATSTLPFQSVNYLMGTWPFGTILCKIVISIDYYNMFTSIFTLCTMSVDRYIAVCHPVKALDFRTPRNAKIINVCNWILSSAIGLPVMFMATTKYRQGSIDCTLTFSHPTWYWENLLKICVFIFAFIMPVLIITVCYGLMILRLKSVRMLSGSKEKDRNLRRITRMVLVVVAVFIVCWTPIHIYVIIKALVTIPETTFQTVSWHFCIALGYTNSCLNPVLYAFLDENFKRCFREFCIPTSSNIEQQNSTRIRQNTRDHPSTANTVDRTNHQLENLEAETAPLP

Compound	AC50 [1] [µM]	AC50 [2] [µM]	AC50 [3] [µM]	AC50 [4] [µM]	AC50 [5] [µM]	AC50 [6] [µM]	AC50 [7] [µM]	AC50 [8] [µM]	AC50 [9] [µM]	AC50 [10] [µM]
Oc1cc(O)c(Cl)cn1	> 30	> 30	> 30	> 30	> 30	> 30	–	–	–	–
CCC1(CCC(C)C)C(=O)NC(=O)NC1=O [AMOBARBITAL]	–	–	–	–	–	–	> 10	> 10	–	–
COc1ccc(C2C(=O)c3ccccc3C2=O)cc1 [ANISINDIONE]	–	–	> 30	–	–	–	> 10	> 30	> 30	–
Cc1cc(=O)n(-c2ccccc2)n1C [ANTIPYRINE]	–	–	–	> 30	–	–	–	> 10	> 30	> 30
O=C(O)CCNC(=O)c1ccc(/N=N/c2ccc(O)c(C(=O)O)c2)cc1 [BALSALAZIDE]	–	–	> 30	–	–	–	> 30	> 30	> 30	–
O=C(CCCN1CCC(O)(c2ccc(Br)cc2)CC1)c1ccc(F)cc1 [BROMPERIDOL]	–	> 30	2	> 30	–	–	1.2	–	> 30	> 30
COc1cc(N)c(Cl)cc1C(=O)NC1CCN(CCCOc2ccc(F)cc2)CC1OC (centres undefined) [CISAPRIDE]	–	> 30	–	> 30	–	–	> 10	0.593	> 30	> 30
CC(CN(C)C)C(C)(O)Cc1ccc(Cl)cc1 (centres undefined) [CLOBUTINOL]	–	–	–	> 30	> 10	–	> 10	> 10	> 30	> 30
CCOC(=O)C(C)(C)Oc1ccc(Cl)cc1 [CLOFIBRATE]	–	> 30	–	> 30	–	–	> 10	> 10	> 30	> 30
C[C@@H]1C[C@H]2[C@@H]3CCC4=CC(=O)C=C[C@]4(C)[C@@]3(F)[C@@H](O)C[C@]2(C)[C@@]1(O)C(=O)CO [DEXAMETHASONE]	–	–	> 30	–	–	–	> 10	> 30	–	–
CCN1CC(CCN2CCOCC2)C(c2ccccc2)(c2ccccc2)C1=O (centres undefined) [DOXAPRAM]	–	> 30	> 30	> 30	–	–	> 30	–	–	–
CCCCOc1ccc(C(=O)CCN2CCCCC2)cc1 [DYCLONINE]	–	> 30	–	> 30	8.5	–	> 10	9.66	> 30	> 30
CC(C)NC[C@H](O)COc1ccc(CC(N)=O)cc1 [ESATENOLOL]	–	> 30	–	–	–	–	> 10	> 10	> 30	–
CCOC(=O)c1ncn2c1CN(C)C(=O)c1cc(F)ccc1-2 [FLUMAZENIL]	–	–	> 30	–	–	–	> 10	> 10	> 30	–
NNC(=O)c1ccncc1 [ISONIAZID]	–	> 30	> 30	> 30	–	–	> 10	> 10	> 30	–
COc1ccc(CN2CCN(C(c3ccc(F)cc3)c3ccc(F)cc3)CC2)c(OC)c1OC [LOMERIZINE]	> 30	> 30	3.3	> 30	4.5	21	–	–	–	–
O=C1Nc2ccc(Cl)cc2C(c2ccccc2Cl)=NC1O (centres undefined) [LORAZEPAM]	–	> 30	–	> 30	–	–	> 10	> 10	> 30	> 30

Compound	AC50 [1] [µM]	AC50 [2] [µM]	AC50 [3] [µM]	AC50 [4] [µM]	AC50 [5] [µM]	AC50 [6] [µM]	AC50 [7] [µM]	AC50 [8] [µM]	AC50 [9] [µM]	AC50 [10] [µM]
COc1ccc2cc(CCC(C)=O)ccc2c1 [NABUMETONE]	–	–	> 30	–	–	–	> 10	> 30	–	–
Cc1ccnc2c1NC(=O)c1cccnc1N2C1CC1 [NEVIRAPINE]	–	> 30	–	> 30	–	–	> 10	> 10	–	> 30
C[C@]12C/C(=C/O)C(=O)C[C@@H]1CC[C@@H]1[C@@H]2CC[C@@]2(C)[C@H]1CC[C@]2(C)O [OXYMETHOLONE]	–	> 30	> 30	> 30	–	–	–	–	> 30	> 30
Fc1ccc([C@@H]2CCNC[C@H]2COc2ccc3c(c2)OCO3)cc1 [PAROXETINE]	–	> 30	–	–	–	–	> 10	–	> 30	–
NC(=O)NC(=O)Cc1ccccc1 [PHENACEMIDE]	–	–	–	–	–	–	> 10	> 10	> 10	–
CCCN(CCC)S(=O)(=O)c1ccc(C(=O)O)cc1 [PROBENECID]	–	–	–	–	–	–	> 10	> 10	–	–
CCC(=O)O[C@](Cc1ccccc1)(c1ccccc1)[C@H](C)CN(C)C [PROPOXYPHENE]	–	> 30	0.17	> 30	> 10	–	> 10	8.05	–	> 30
CCc1nc(N)nc(N)c1-c1ccc(Cl)cc1 [PYRIMETHAMINE]	–	–	> 30	> 30	> 30	–	> 10	4	> 10	> 30
O=c1c(O)c(-c2ccc(O)c(O)c2)oc2cc(O)cc(O)c12 [QUERCETIN]	–	> 30	–	–	> 10	–	> 10	–	> 30	–
CCCN1CCCC[C@H]1C(=O)Nc1c(C)cccc1C [ROPIVACAINE]	> 30	> 30	> 30	> 30	> 30	> 30	–	–	–	–
Cc1cc(C)nc(NS(=O)(=O)c2ccc(N)cc2)n1 [SULFAMETHAZINE]	–	–	> 30	–	–	–	> 10	> 30	–	–
CCOC(=O)c1ccc(C#Cc2ccc3c(c2)C(C)(C)CCS3)nc1 [TAZAROTENE]	–	–	–	–	> 10	–	–	> 10	–	> 30
CCOC(=O)[C@@H](N)Cc1ccc(-c2cc(O[C@H](c3ccc(Cl)cc3-n3ccc(C)n3)C(F)(F)F)nc(N)n2)cc1 [TELOTRISTAT ETHYL]	> 30	> 30	–	> 30	> 30	–	–	–	–	> 30
COc1cc(C(=O)NC2CCCNC2)cc(OC)c1OC (centres undefined) [TROXIPIDE]	–	> 30	> 30	> 30	–	–	–	–	–	–
CC(C)(C)NCC(O)c1ccccc1Cl (centres undefined) [TULOBUTEROL]	> 30	> 30	> 30	> 30	–	> 30	> 30	–	> 30	–
CCCCCCCC(=O)CC[C@@H]1[C@@H](C/C=C\CCCC(=O)OC(C)C)[C@@H](O)C[C@H]1O [UNOPROSTONE ISOPROPYL]	–	–	–	–	> 30	–	–	–	–	–
CC(c1cc2ccccc2s1)N(O)C(N)=O (centres undefined) [ZILEUTON]	–	–	–	> 30	–	–	–	> 10	> 30	–

Reference: ChEMBL document CHEMBL5291721, “A preclinical secondary pharmacology resource illuminates target-adverse drug reaction associations of marketed drugs” (Nat Commun, 2023)
